Assay: Pharmacokinetics of GHB in plasma after oral gavage of GHB delivering compounds, with relative oral bioavailability vs sodium oxybate
Details: vehicle water; for % AUC0-4 hr, relative oral bioavailability vs study comparator (sodium oxybate) / % Cmax, relative oral bioavailability vs study comparator (sodium oxybate): mean conjugate/mean comparator
[1] = dose molar equivalent of 100 mg/kg NaGHB
[2] = dose equivalent to 80 mg/kg NaGHB

## O=C1CCCO1 [GBL]
[1]
  % AUC0-4 hr, relative oral bioavailability vs study comparator (sodium oxybate): 27%
  % Cmax, relative oral bioavailability vs study comparator (sodium oxybate): 70%
Oral gavage, dose molar equivalent of 100 mg/kg NaGHB
  Tmax of GHB in plasma: 15 min

## CCOC(=O)OCCCC(=O)O [O-(ethoxycarbonyl)-GHB, O-(Ethoxycarbonyl)-GHB]
[2]
  % AUC0-4 hr, relative oral bioavailability vs study comparator (sodium oxybate): 54%
  % Cmax, relative oral bioavailability vs study comparator (sodium oxybate): 51%

— patent publication US20250367299A1, “GAMMA-HYDRO[…] AND PROCESSES FOR MAKING AND USING THEM” (Zevra Therapeutics, Inc., priority 2022, published 2025)
